Source: ChEMBL document CHEMBL2016549, “Bioconversion of silybin to phase I and II microbial metabolites with retained antioxidant activity” (Bioorg Med Chem, 2012)

Each compound was assayed on Radical scavenging activity (assay: Antioxidant activity assessed as DPPH radical scavenging activity by densitometric analysis).
Assay type: functional

SMILES	IC50
O=C1O[C@H]([C@@H](O)CO)C(O)=C1O [ASCORBIC ACID]	7.7 µM
COc1cc(C2Oc3cc(-c4oc5cc(OS(=O)(=O)O)cc(O)c5c(=O)c4O)ccc3OC2CO)ccc1O (mixture of isomers)	99.7 µM

Results, then the compound that gave them:

IC50	SMILES
30.3 µM	COc1cc(C2Oc3cc([C@H]4Oc5c(O)c(O)cc(O)c5C(=O)[C@@H]4O)ccc3OC2CO)ccc1O (mixture of isomers)
284 µM	COc1cc(C2Oc3cc([C@H]4Oc5cc(O)cc(O)c5C(=O)[C@@H]4O)ccc3OC2CO)ccc1O (mixture of isomers) [SILIBININ]
831 µM	COc1cc(C2Oc3cc([C@H]4Oc5cc(OS(=O)(=O)O)cc(O)c5C(=O)[C@@H]4O)ccc3OC2CO)ccc1O (mixture of isomers)

Each compound was assayed on Radical scavenging activity (assay: Antioxidant activity assessed as DPPH radical scavenging activity by densitometric analysis relative to ascorbic acid).
Assay type: functional

SMILES	Activity
COc1cc(C2Oc3cc([C@H]4Oc5c(O)c(O)cc(O)c5C(=O)[C@@H]4O)ccc3OC2CO)ccc1O (mixture of isomers)	25%
